From patent publication US20090215845A1, “Fungicidal mixtures” (priority 2005, published 2009)
Read-outs that look alike come from different tables or passages of the source.

Legend:
Coriolus versicolor = experiment: MIC, radial hyphal growth on malt extract peptone nutrient agar; format: cell-based; conditions: Trametes versicolor
Method: (§1) The synergism was then determined using the method described by Kull et al. (F. C. Kull, P. C. Eismann, H. D. Sylvestrowicz, R. L. Mayer, Applied Microbiology 9, 538 to 541, 1961). Here, the following relationships apply:
(§2) Qa=concentration of substance A which corresponds to the MIC
(§3) Qb=concentration of substance B which corresponds to the MIC
(§4) QA=concentration of substance A in the concentration of A/B which suppresses microbial growth
(§5) QB=concentration of substance B in the concentration of A/B which suppresses microbial growth
(§6) SI=1 means the activities are additive
Various concentrations of prochloraz (A), tebuconazole (B) and mixtures (AB) of the two active compounds mentioned were tested against the wood-destroying Basidiomycetes Coriolus versicolor. Mycelium pieces were punched out of a colony of the wood-destroying organism and incubated at 26° C. on a nutrient agar which contained malt extract peptone. The radial growth of the hypha with and without added active compound was then compared. The minimum inhibitory concentration (MIC) stated below is the lowest concentration of active compound at which the radial growth is suppressed completely.

[1] = test system: microorganisms in biologically active soil; experiment: Soil burial of treated cotton sailcloth (DIN ENV 807), tear resistance; conditions: cloth drenched with 800 ppm single active compound in ethanol; 4 weeks in biologically active soil
Method: Untreated cotton sailcloth consisting of cellulose (500 g/m^2) was drenched with a solution of 800 ppm of prochloraz (A) and 800 ppm of tebuconazole (B) and a mixture (AB) comprising 200 ppm of prochloraz and 200 ppm of tebuconazole in ethanol. The samples were dried at 23° C. and 50% relative atmospheric humidity for 7 days and incorporated into biologically active soil according to DIN ENV 807. After 4 weeks, tear resistance of the cotton cloth was determined as a measure for the protection against destruction by microorganisms achieved by the active compounds.

blueing fungi = conditions: J. A. Drysdale et al., New Zealand Journal of Forestry Science 1982; cited from earlier work
Trichurus spiralis = experiment: MIC on nutrient agar media against soft-rot pathogen; format: cell-based
Method: as §1, §2, §3, §4, §5, §6
Various concentrations of prochloraz (A), tebuconazole (B) and mixtures of the two active compounds mentioned (AB) were tested against the soft-rot pathogen Trichurus spiralis on nutrient agar media. The minimum inhibitory concentration (MIC) refers to the value of the active compound or the active compound mixture in question where no growth could be observed.

CCCN(CCOc1c(Cl)cc(Cl)cc1Cl)C(=O)n1ccnc1 [A, N-propyl-N-[2-(2,4,6-trichlorophenoxy)ethyl]imidazole-1-carboxamide]
MIC (Coriolus versicolor): 6 µg/mL | tear resistance of the cotton cloth [1]: easy to tear | activity against blueing fungi (blueing fungi): insufficiently active | MIC (Trichurus spiralis): 5 µg/mL

CC(C)(C)C(O)(CCc1ccc(Cl)cc1)Cn1cncn1 (stereo not shown) [B, tebuconazole]
MIC (Coriolus versicolor; Coriolus versicolor, 26° C., malt extract peptone agar, lowest concentration at which radial growth is suppressed completely, read-out: MIC): 0.3 µg/mL | tear resistance of the cotton cloth [1]: easy to tear | MIC (Trichurus spiralis; nutrient agar, concentration where no growth could be observed, read-out: MIC): 200 µg/mL
